Data set [1] is described as follows: stability on storage. The class given is physicochemical.
A short description of data set [2]: solubility in water or aqueous buffer.
The subject of data set [3] is carboxyesterase. Description: substrate test with carboxyesterase. The format is biochemical. On the procedure:
The serum samples were diluted by a factor of 10 prior to the assay. The substrate solution and the diluted sera were then preincubated at 37° C. in a water bath. Aliquots (0.75 ml) of the substrate solution were then pipetted into small plastic tubes (2 ml capacity), and 0.05 ml samples of the sera were added to each of the substrate aliquots and shaken vigorously to ensure adequate mixing. A blank was run by substituting water (0.05 ml) for the serum. The reaction was stopped after 10 min by the addition of the stopping buffer (0.25 ml) [prepared by dissolving DABCO (22.4 g) in water (200 ml) and adjusting the pH to 10 by the addition of a little conc. hydrochloric acid. The resulting mixture was then made up to 1000 ml with acetone]. […] [formula] where t=time of incubation in hours
Otherwise it was carried out in exactly the same ways as above

Data set [4] has as its system lipases. Description: substrate test with lipases. The class given is biochemical.
Data set [5] relates to alkaline phosphatase. Description: substrate test with alkaline phosphatase. The format is biochemical.
The subject of data set [6] is N-acetyl-β-D-glucosaminidase (NAGase). Description: substrate test with N-acetyl-β-D-glucosaminidase. The format is biochemical. On the procedure: METHOD. The MIXTURE A is dissolved in 10 ml of distilled water to give SOLUTION A. The solution should be allowed to stand in a thermostatically controlled bath at 37° C., and then 0.75 ml of the solution is added to a series of suitable tubes of 2 ml capacity. To these tubes is added, with vigorous stirring, […] aliquots of the urines under examination, and a blank is prepared by adding 0.05 ml of distilled water rather than urine to one of the tubes. The tubes are then incubate for a set length of time (preferably 30 min), after which 0.25 ml of the STOPPING BUFFER is added to each tube and the absorption (A) at 505 nm is determined for each sample, and adjusted for the value of the blank.
The enzyme activity of the enzyme in each sample is given by the expression using and εmax =42,000. [formula] where t=time of incubation in hours

Data set [7] deals with esterases. Description: substrate test with esterases. The class given is biochemical.

Where only a bound is given, the exact number is not on record here.

One may read the solubility as the dissolved amount per volume that the medium holds. In the case of `CCCC(=O)Oc1c(OC)cc(C=C2SC(=S)N(CC(=O)O)C2=O)cc1OC` [11d, n=2, 5-(Butanoyloxy-3,5-dimethoxyphenylmethylene)-2-thioxothiazolidin-4-one-3-ethanoic acid], the stability on standing result in data set [1] (potassium salt compared with free acid) was “slowly decomposed on standing”. For the same molecule, the “solubility in alkaline buffers” value in data set [2] (alkaline buffers (pH 8 etc.)) was “readily dissolved”. Moreover, in data set [2] (water or aqueous buffer, aqueous buffer), the solubility was above 2000 µM. Moreover, the “quality as substrate for / cleavage by carboxyesterase” value in data set [3] was “readily cleaved”.

In the case of `CCCCCCCCCC(=O)Oc1c(OC)cc(C=C2SC(=S)N(CC(=O)O)C2=O)cc1OC` [11d, n=8], in data set [4], the “activity as substrate for lipase” value is “good substrate”.

In the case of `COc1cc(/C=C/c2ccc3ccccc3[n+]2C)ccc1OP(=O)(O)O` [21f, 2-[2-(4-phosphoroyloxy-3-methoxyphenyl)-vinyl]-1-methylquinolinium iodide], in data set [1], the stability in storage entry was “rather unstable in storage”. Further, the “quality as substrate for / hydrolysis by alkaline phosphatase” value in data set [5] is recorded as “reacted rapidly”. Moreover, the “solubility in water” value in data set [2] (water) is “very soluble in water”.

Consider `COc1cc(/C=C/c2cc[n+](C)c3ccccc23)ccc1O[C@@H]1O[C@H](CO)[C@@H](O)[C@H](O)[C@H]1NC(C)=O` [23b, 4-{2-[4-(2-acetamido-2-deoxy-β-D-glucopyranosyloxy)-3-methoxyphenyl]-vinyl}-1-methylquinolinium iodide], for which the “quality as substrate for NAGase” value in data set [6] was “fair substrate”. Besides, the “solubility in water” value in data set [2] (water) is on record as “good water solubility”.

On to `COc1cc(/C=C/c2cc[n+](C)c3ccccc23)cc(OC)c1OC(=O)c1ccccc1` [24e, 4-[2(4-Benzoyloxy-3,5-dimethoxyphenyl)-vinyl]-1-methylquinolinium iodide], for which the “activity as substrate for esterases” value in data set [7] is recorded as “substrate for esterases”. The same molecule yielded a solubility in data set [2] (water) below 250 µM.

For the molecule `CCCCCCCCC(=O)Oc1c(OC)cc(C=C2SC(=S)N(c3ccc(C(=O)O)cc3)C2=O)cc1OC` [Nonanoate], the “activity as substrate for lipase” value in data set [4] is given as “exhibited enzymatic activity”.

Source of the values: US5221606A, “Reagent and kit for enzyme assay comprising a substrate consonant with given enzyme to be assayed” (King's College London, priority 1987, dated 1993).
